Measurements published in US4401677A, “Enkephalinase inhibitors” (E. R. Squibb & Sons, Inc., priority 1981, dated 1983).

Assays:
[1] = molecular target: T1, enkephalinase purified from membrane fractions of sheep corpus striatum (Ovis aries, UniProt A0ACI6S0K5); experiment: inhibition of cleavage of [^3 H-Tyr^1, Leu^5 ]-enkephalin by purified enkephalinase (radiochromatographic method); format: biochemical; settings: 70 nM substrate, pH 7.0, 15 minutes at 37°; called I50
T1 sequence (A0ACI6S0K5 2-750): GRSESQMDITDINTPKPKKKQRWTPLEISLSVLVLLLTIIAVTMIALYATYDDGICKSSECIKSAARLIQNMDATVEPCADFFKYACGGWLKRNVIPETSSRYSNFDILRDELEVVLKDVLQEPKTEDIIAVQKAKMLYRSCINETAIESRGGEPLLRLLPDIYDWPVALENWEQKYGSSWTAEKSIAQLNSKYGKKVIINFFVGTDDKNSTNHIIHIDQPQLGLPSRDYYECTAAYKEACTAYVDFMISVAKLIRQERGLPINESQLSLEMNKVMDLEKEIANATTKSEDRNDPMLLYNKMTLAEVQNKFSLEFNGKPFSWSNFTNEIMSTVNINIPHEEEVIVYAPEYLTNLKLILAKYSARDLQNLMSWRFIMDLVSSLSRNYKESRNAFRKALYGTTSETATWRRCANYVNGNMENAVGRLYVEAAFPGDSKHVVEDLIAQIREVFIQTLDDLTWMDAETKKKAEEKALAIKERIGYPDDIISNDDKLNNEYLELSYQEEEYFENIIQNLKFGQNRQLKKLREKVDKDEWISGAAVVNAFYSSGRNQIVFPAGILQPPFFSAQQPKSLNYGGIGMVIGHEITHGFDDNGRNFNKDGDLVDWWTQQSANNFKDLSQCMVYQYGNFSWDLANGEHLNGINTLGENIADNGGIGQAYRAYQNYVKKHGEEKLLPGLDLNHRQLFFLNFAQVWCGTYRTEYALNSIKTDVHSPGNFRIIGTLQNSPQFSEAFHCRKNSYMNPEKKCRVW
Protocol: Frozen sheep striatia were homogenized in 20 volumes of 50 mM Tris (i.e., 2-amino-2-hydroxymethyl-1,3-propanediol)-hydrochloric acid buffer, pH 7.7, and centrifuged at 37,000×g. for 15 minutes. The sedimented material (membrane fraction), after being washed three times by resuspension and recentrifugation, was solubilized by stirring with half the original volume of 50 mM Tris-hydrochloric acid buffer, pH 7.7, containing 1% Triton X-100 (i.e., polyethylene glycol p-isooctylphenyl ether) nonionic detergent, followed by centrifugation for 2 hours at 37,000×g. […] Protein was eluted from the column with a one liter gradient of 0-0.4 M sodium chloride in the same buffer mixture, with 8.7 ml. fractions being collected.
Activity of the enzyme for purification and inhibitor studies was determined by the following radiochromatographic method. […] An aliquot of 0.01 ml. of acidified reaction mixture was spotted onto a Whatman LK 50 silica gel thin-layer chromatography plate along with the appropriate peptide standards. After development of the plate in a solvent composed of isopropanol:ethyl acetate:5% acetic acid (2:2:1), the spots corresponding to Tyr, Tyr-Gly, Tyr-Gly-Gly, and unreacted enkephalin (Tyr-Gly-Gly-Phe-Leu), as visualized with ninhydrin reaction, were scraped from the plate, and the incorporated radioactivity was counted in a liquid scintillation counter.

[2] = system: enkephalinase; settings: cited from earlier work

Compound	IC50 [1]	inhibitor of enkephalinase in vitro [2]
CC(CS)C(=O)N[C@@H](CCCNC(=N)N)C(=O)O (mixture of isomers) [Ex. 1, N-(DL-3-Mercapto-2-methyl-1-oxopropyl)-L-arginine]	150 nM	
N=C(N)NCCC[C@H](NC(=O)C(CS)Cc1ccccc1)C(=O)O (mixture of isomers) [Ex. 2, N-[DL-2-(Mercaptomethyl)-1-oxo-3-phenylpropyl]-L-arginine]	85 nM	
CC(CS)C(=O)N[C@@H](Cc1c[nH]c2ccccc12)C(=O)O (mixture of isomers) [Ex. 3, N-(DL-3-Mercapto-2-methyl-1-oxopropyl)-L-tryptophan]	5 nM	
CC(CS)C(=O)N[C@@H](Cc1ccc(O)cc1)C(=O)O (mixture of isomers) [Ex. 4, N-(DL-3-Mercapto-2-methyl-1-oxopropyl)-L-tyrosine]	2.5 nM	
CC(CS)C(=O)N[C@@H](Cc1ccc(O)c(O)c1)C(=O)O (mixture of isomers) [Ex. 5, 3-Hydroxy-N-(DL-3-mercapto-2-methyl-1-oxopropyl)-L-tyrosine]	5 nM	
CC(C)CC(CS)C(=O)N[C@@H](CCCNC(=N)N)C(=O)O (mixture of isomers) [Ex. 7, (±)-N^2-[2-(Mercaptomethyl)-4-methyl-1-oxopentyl]-L-arginine]	30 nM	
O=C(O)CNC(=O)C(CS)Cc1ccccc1 (racemic) [thiorphan, [(DL-3-mercapto-2-benzylpropanoyl)]-glycine]		inhibitor of enkephalinase in vitro in nanomolar concentration
C[C@H](CS)C(=O)N[C@@H](Cc1ccc(O)c(O)c1)C(=O)O [Ex. 6, 3-Hydroxy-N-(D-3-mercapto-2-methyl-1-oxopropyl)-L-tyrosine]	2.5 nM	
